Results from paper PMC4261083, “An atypical residue in the pore of Varroa destructor GABA-activated RDL receptors affects picrotoxin block and thymol modulation” (Insect Biochemistry and Molecular Biology, 2014).
Changes are numbered by the printed parent chain.

Columns and labels:
Format in all cases: cell-based
[1] = biological target: T1, A21′Q mutant Drosophila RDL receptor (Drosophila melanogaster, UniProt P25123, A320Q); assay: Thymol modulation of GABA concentration-response curves, two electrode voltage clamp in Xenopus oocytes
T1 construct: expressed in transfected cells; host or cells: Xenopus laevis oocytes injected with cRNA
T1 sequence (P25123 45-606 A320Q): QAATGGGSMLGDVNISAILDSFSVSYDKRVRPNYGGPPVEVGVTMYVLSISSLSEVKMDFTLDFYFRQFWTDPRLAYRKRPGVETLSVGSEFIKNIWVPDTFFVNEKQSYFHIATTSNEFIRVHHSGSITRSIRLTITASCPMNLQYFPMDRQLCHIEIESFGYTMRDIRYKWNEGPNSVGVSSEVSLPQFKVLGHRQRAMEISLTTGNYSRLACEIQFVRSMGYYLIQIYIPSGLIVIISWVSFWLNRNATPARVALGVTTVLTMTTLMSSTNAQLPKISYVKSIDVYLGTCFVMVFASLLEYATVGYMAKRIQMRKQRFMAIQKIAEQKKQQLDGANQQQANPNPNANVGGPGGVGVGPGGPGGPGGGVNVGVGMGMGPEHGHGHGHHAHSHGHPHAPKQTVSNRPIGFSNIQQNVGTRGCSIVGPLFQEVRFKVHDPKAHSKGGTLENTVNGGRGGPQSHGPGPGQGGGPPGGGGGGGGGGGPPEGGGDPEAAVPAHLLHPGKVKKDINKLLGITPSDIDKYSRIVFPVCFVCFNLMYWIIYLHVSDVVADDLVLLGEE
Description: (§1) X. laevis oocyte-positive females were purchased from NASCO (Fort Atkinson, Wisconsin, USA) and maintained according to standard methods. Harvested stage V-VI Xenopus oocytes were washed in four changes of ND96 (96 mM NaCl, 2 mM KCl, 1 mM MgCl2, 1 mM CaCl2, 5 mM HEPES, pH 7.5), de-folliculated in 1.5 mg ml^−1 collagenase Type 1A for approximately 2 h, washed again in four changes of ND96 and stored in ND96 containing 2.5 mM sodium pyruvate, 0.7 mM theophylline and […].
(§2) Site directed mutagenesis was performed with the QuikChange mutagenesis kit (Agilent, La Jolla, CA). cRNA was transcribed in vitro from linearised pGEMHE cDNA template using the mMessage mMachine T7 Transcription kit (Ambion, Austin, Texas, USA). Stage V and VI oocytes were injected with 5 ng cRNA, incubated at 18 °C, and currents recorded 18–24 h post-injection.
(§3) Currents were recorded at 5 kHz and filtered at a frequency of 1 kHz. Micro-electrodes were fabricated from borosilicate glass (GC120TF-10, Harvard Apparatus, Edenbridge, Kent, UK) using a one stage horizontal pull (P-87, Sutter Instrument Company, California, USA) and filled with 3 M KCl. […] Oocytes were perfused with ND96 at a constant rate of 12 ml min^−1. Drug application was via a simple gravity fed system calibrated to run at the same rate.
(§4) Analysis and curve fitting was performed using Prism v5 (GraphPad Software, San Diego, California, USA). Concentration-response data for each oocyte was normalised to the maximum current for that oocyte. The mean and S.E.M. for a series of oocytes were fitted to the four parameter logistic equation in Prism.

[2] = biological target: T2, wild type Drosophila RDL receptor (Drosophila melanogaster, UniProt P25123); assay: as above; conditions: WT RDL
T2 construct: expressed in transfected cells; host or cells: Xenopus laevis oocytes injected with cRNA
T2 sequence (P25123 45-606): T1 sequence (P25123 45-606 A320Q) with Q276A
Description: as §1, §2, §3, §4

[3] = biological target: T3, 4M2 mutant Drosophila RDL receptor (N-7′H, T6′M, A20′S and A21′Q) (Drosophila melanogaster, UniProt P25123, A319S/A320Q/N292H/T305M); conditions: 4M2 RDL
T3 construct: expressed in transfected cells; host or cells: Xenopus laevis oocytes injected with cRNA
T3 sequence (P25123 45-606 N292H/T305M/A319S/A320Q): T1 sequence (P25123 45-606 A320Q) with N248H, T261M, A275S
Description: as §1, §2, §3, §4

[4] = GABA EC50 control vs +100 μM thymol
[5] = GABA concentration-response in presence of 100 μM thymol

Compound: Cc1ccc(C(C)C)c(O)c1 [Thymol, thymol]
- Effect of thymol on GABA-induced responses ([1]; 100 μM thymol, 1 μM GABA): enhance
- Fold change in EC50 [1, 4]: 3.6
- % Imax [1, 5]: 89 ± 4%
- Effect of thymol on GABA-induced responses ([2]; 100 μM thymol, 1 μM GABA): enhance
- Fold change in EC50 [2, 4]: 4.8
- % Imax [2, 5]: 94 ± 3%
- Effect of thymol on GABA-induced responses ([3]; 100 μM thymol, at some GABA concentrations): inhibition
- Fold change in EC50 [3, 4]: 3.0
- % Imax [3, 5]: 52 ± 4%
